US12281304B2, “Compositions and methods for treating and preventing muscular disorders and dystrophies, steroid side effects, and inflammation” (Children's National Medical Center, priority 2018, dated 2025)

Test system: miRNAs in diaphragm muscle of mdx mice
Assay: TaqMan low-density array (TLDA) miRNA profiling of diaphragm, discovery set (prophylactic mdx trial)
Assay type: in vivo, mouse
Details: mdx diaphragm, vs untreated mdx; Pred 5 mg/kg, Vam 15 mg/kg
From the text: Archival muscle samples (diaphragm) from two separate preclinical studies were obtained, with each trial showing a significant benefit from both prednisolone and vamorolone drug treatments (23). Prednisolone was used because it is the active form of prednisone, the current DMD standard of care. The first, “discovery set” of diaphragm muscles was from a prophylactic trial design where 2-week old (postnatal day 15) mdx or wild type control mice received oral dosing for 6 weeks with vehicle (cherry syrup), prednisolone (5 mg/kg), or vamorolone (15 mg/kg) as previously reported (23). The second, “validation set” of diaphragm muscles was from an extended trial in older mice where mdx or wild type mice were subjected to treadmill running to unmask mild phenotypes. Mice in this validation set were treated with either vehicle, prednisolone (5 mg/kg) or vamorolone (45 mg/kg) for four months beginning at two months of age (23). At the endpoint of each trial, diaphragm muscles were harvested and frozen in liquid nitrogen-cooled isopentane.
We extracted total RNA from 5 diaphragm muscles per treatment group in the discovery set of samples from 8-week old mice. RNA was extracted using a modified TRIzol protocol with isopropanol precipitation at −20° C. overnight. This RNA was reverse transcribed to cDNA using a High Capacity cDNA Reverse Transcription Kit with RNase Inhibitor (ThermoFisher; Carlsbad, Calif.), with miRNA-specific Megaplex RT Primers, Rodent Pools Set version 3.0 (ThermoFisher; Carlsbad, Calif.). Levels of each of the miRNAs were profiled in the discovery set using TAQMAN Array Rodent MiRNA A+B Cards Set v3.0 (ThermoFisher; Carlsbad, Calif.).
In the discovery set experiments, levels of each miRNA were quantified in TaqMan low-density arrays using ThermoFisher Cloud software with the Relative Quantification Application (ThermoFisher; Carlsbad, Calif.) tool. Data was analyzed by ANOVA with post-hoc comparison of each group to the mdx vehicle-treated group. […] A P-value of P≤0.05 was set as the significance threshold, without adjustment for multiple comparisons. To reduce false-positive discovery in this setting, an evidence-based approach was used to identify efficacy associated miRNAs where 1) results from the multiple groups were cross-referenced, and 2) all candidate miRNAs identified in this discovery set were then assayed in a separate validation set of mice. For the validation set experiments, levels of each individual miRNA were assayed in samples from a second, independent preclinical trial in adult mdx mice. Data from individual TaqMan Assays was quantified using QuantStudio Real-Time PCR version 1.3 software (Applied Biosystems; Foster City, Calif.). The levels of all miRNAs were normalized to the geometric mean of multiple control genes (60, 70). Comparison of groups was made by ANOVA with Holm-Sidak post-hoc test comparing each group to mdx vehicle.
To visualize behavior of miRNAs within individual mice for each group, heat map images were generated. Heat maps were generated using Rq values of TLDA array data exported from the Relative Quantification Application of the ThermoFisher Cloud software (ThermoFisher; Carlsbad, Calif.) tool. Heat maps of miRNA expression were produced using Hierarchical Clustering Explorer Version 3.5 (at www.cs.umd.edu/hcil/multi-cluster/) produced by the Human Computer Interaction Laboratory (University of Maryland; College Park, Md.).
To examine miRNA expression TaqMan low density qPCR array cards were used to profile approximately 750 miRNAs within diaphragm muscle from a discovery set of mice. Samples for this experiment came from a trial that utilized a prophylactic approach (23). Briefly, mdx mice undergo a stage of peak severity characterized by widespread inflammation and necrosis from approximately 3-8 weeks of age, followed by a recovery stage where mice show milder phenotypes (25). […]

## C[C@]12C=CC(=O)C=C1CC[C@@H]1[C@@H]2[C@@H](O)C[C@@]2(C)[C@H]1CC[C@]2(O)C(=O)CO [prednisolone]
  Rq mmu-miR-214-002306: 0.898
  Rq mmu-miR-215-001200: 0.792
  Rq mmu-miR-218-000521: 0.615
  Rq mmu-miR-221-000524: 0.687
  Rq mmu-miR-222-002276: 0.666
  Rq mmu-miR-223-002295: 0.804
  Rq mmu-miR-296-5p-000527: 1.035
  Rq mmu-miR-301a-000528: 0.687
  Rq mmu-miR-301b-002600: 0.862
  Rq mmu-miR-322-001076: 0.67
  Rq mmu-miR-324-3p-002509: 0.713
  Rq mmu-miR-324-5p-000539: 0.859
  Rq mmu-miR-328-000543: 0.888
  Rq mmu-miR-335-3p-002185: 1.354
  Rq mmu-miR-335-5p-000546: 0.756
  Rq mmu-miR-337-3p-002532: 0.853
  Rq mmu-miR-338-3p-002252: 0.469
  Rq mmu-miR-339-5p-002257: 0.652
  Rq mmu-miR-340-3p-002259: 0.581
  Rq mmu-miR-340-5p-002258: 0.602
  Rq mmu-miR-342-3p-002260: 0.407
  Rq mmu-miR-342-5p-002527: 0.529
  Rq mmu-miR-345-5p-002528: 0.713
  Rq mmu-miR-350-002530: 0.796
  Rq mmu-miR-362-3p-002616: 0.936
  Rq mmu-miR-362-5p-002614: 1.241
  Rq mmu-miR-369-3p-000557: 1.192
  Rq mmu-miR-369-5p-001021: 1.211
  Rq mmu-miR-370-002275: 1.975
  Rq mmu-miR-376a#-002482: 1.351
  Rq mmu-miR-376a-001069: 1.484
  Rq mmu-miR-376b#-002451: 1.084
  Rq mmu-miR-376b-002452: 1.602
  Rq mmu-miR-376c-002450: 0.966
  Rq mmu-miR-379-001138: 1.085
  Rq mmu-miR-380-5p-002601: 1.287
  Rq mmu-miR-381-000571: 1.359
  Rq mmu-miR-382-000572: 1.017
  Rq mmu-miR-383-001767: 0.551
  Rq mmu-miR-384-5p-002602: 0.618
  Rq mmu-miR-409-3p-002332: 1.906
  Rq mmu-miR-410-001274: 1.676
  Rq mmu-miR-411-001610: 1.171
  Rq mmu-miR-431-001979: 1.819
  Rq mmu-miR-433-001028: 2.288
  Rq mmu-miR-434-5p-002581: 1.271
  Rq mmu-miR-450a-5p-002303: 1.051
  Rq mmu-miR-455-002455: 0.612
  Rq mmu-miR-467F-002886: 1.346
  Rq mmu-miR-467a-002587: 0.751
  Rq mmu-miR-467c-002517: 0.992
  Rq mmu-miR-483#-002560: 1.367
  Rq mmu-miR-486-001278: 0.917
  Rq mmu-miR-487b-001285: 1.43
  Rq mmu-miR-489-001302: 0.792
  Rq mmu-miR-491-001630: 0.776
  Rq mmu-miR-493-002519: 2.641
  Rq mmu-miR-494-002365: 1.025
  Rq mmu-miR-495-001663: 1.448
  Rq mmu-miR-497-001346: 0.482
  Rq mmu-miR-500-002606: 0.935
  Rq mmu-miR-501-3p-001651: 0.97
  Rq mmu-miR-503-002456: 0.923
  Rq mmu-miR-511-002549: 0.48
  Rq mmu-miR-532-3p-002355: 1.067
  Rq mmu-miR-532-5p-001518: 1.087
  Rq mmu-miR-540-3p-001310: 0.908
  Rq mmu-miR-541-002562: 1.165
  Rq mmu-miR-542-3p-001284: 1.123
  Rq mmu-miR-542-5p-002563: 0.96
  Rq mmu-miR-543-001298: 2.644
  Rq mmu-miR-543-002376: 1.81
  Rq mmu-miR-544-002550: 1.001
  Rq mmu-miR-574-3p-002349: 0.667
  Rq mmu-miR-652-002352: 0.626
  Rq mmu-miR-665-002607: 1.683
  Rq mmu-miR-669a-001683: 0.678
  Rq mmu-miR-673-3p-002449: 1.562
  Rq mmu-miR-673-001954: 2.031
  Rq mmu-miR-674#-001956: 0.857
  Rq mmu-miR-674-002021: 0.846
  Rq mmu-miR-675-3p-001941: 1.258
  Rq mmu-miR-682-001666: 0.702
  Rq mmu-miR-690-001677: 0.744
  Rq mmu-miR-706-001641: 0.75
  Rq mmu-miR-708-002341: 0.636
  Rq mmu-miR-720-001629: 0.905
  Rq mmu-miR-802-002029: 0.245
  Rq mmu-miR-805-002045: 1.066
  Rq mmu-miR-1274a-121150_mat: 1.138
  Rq mmu-miR-1941-3p-121130_mat: 2.166
  Rq mmu-miR-1943-121174_mat: 0.831
  Rq mmu-miR-1944-121189_mat: 0.877
  Rq mmu-miR-2146-241082_mat: 1.113
  Rq mmu-miR-30d-000420: 0.701
  Rq rno-miR-1-002064: 0.911
  Rq rno-miR-7#-001338: 0.751
  Rq rno-miR-7a#-002062: 0.863
  Rq rno-miR-20b-001326: 0.491
  Rq rno-miR-29c#-001818: 0.826
  Rq rno-miR-204#-002076: 0.729
  Rq rno-miR-224-000599: 1.144
  Rq rno-miR-345-3p-002061: 0.859
  Rq rno-miR-351-002063: 1.366
  Rq rno-miR-379#-002081: 1.563
  Rq rno-miR-381-001322: 1.107
  Rq rno-miR-489-001353: 0.626
  Rq rno-miR-664-001323: 0.638
